Where two headings read alike, the source gives them in different places.
What was measured:
[1] = target: T1, β-glucosidase from Aspergillus niger (Aspergillus niger, UniProt A2RAL4); assay: Inhibition of β-glucosidase from Aspergillus niger, β-p-NPG substrate; assay type: biochemical; settings: read-out: Apparent IC50, A. niger β-glucosidase; pH 4.6, β-p-NPG substrate
T1 sequence (A2RAL4 20-860): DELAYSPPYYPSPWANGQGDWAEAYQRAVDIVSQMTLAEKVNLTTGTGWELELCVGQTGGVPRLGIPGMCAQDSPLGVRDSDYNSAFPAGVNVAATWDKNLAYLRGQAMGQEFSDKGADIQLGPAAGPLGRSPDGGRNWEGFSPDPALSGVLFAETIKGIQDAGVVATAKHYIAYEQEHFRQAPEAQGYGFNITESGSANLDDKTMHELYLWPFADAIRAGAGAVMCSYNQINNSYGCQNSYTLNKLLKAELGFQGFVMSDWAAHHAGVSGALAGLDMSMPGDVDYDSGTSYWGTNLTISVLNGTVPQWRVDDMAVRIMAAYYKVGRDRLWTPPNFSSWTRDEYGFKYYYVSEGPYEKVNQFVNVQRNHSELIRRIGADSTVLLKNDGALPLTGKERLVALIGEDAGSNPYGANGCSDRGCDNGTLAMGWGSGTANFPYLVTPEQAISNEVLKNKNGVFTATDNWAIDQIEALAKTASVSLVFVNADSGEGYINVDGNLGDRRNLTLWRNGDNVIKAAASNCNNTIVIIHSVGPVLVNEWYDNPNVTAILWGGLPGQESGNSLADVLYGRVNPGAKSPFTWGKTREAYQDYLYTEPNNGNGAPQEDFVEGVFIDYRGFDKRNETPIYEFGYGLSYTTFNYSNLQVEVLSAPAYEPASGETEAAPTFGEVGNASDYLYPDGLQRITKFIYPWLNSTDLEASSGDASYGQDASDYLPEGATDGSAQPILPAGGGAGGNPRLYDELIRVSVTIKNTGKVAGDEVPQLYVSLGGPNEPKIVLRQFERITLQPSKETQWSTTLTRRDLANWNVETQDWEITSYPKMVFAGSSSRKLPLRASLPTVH

[2] = target: rat intestinal maltase; assay: Inhibitory effects on rat intestinal α-glucosidases: maltase; assay type: biochemical; settings: read-out: Apparent IC50, Maltase; rat intestinal disaccharidases
[3] = target: T2, rat intestinal isomaltase (Rattus norvegicus, UniProt P23739); assay: Inhibitory effects on rat intestinal α-glucosidases: isomaltase; assay type: biochemical
[4] = target: rat intestinal sucrase (Rattus norvegicus, UniProt P23739); assay: Inhibitory effects on rat intestinal α-glucosidases: sucrase; assay type: biochemical
[5] = target: recombinant human α-glucosidase GAA (Homo sapiens, UniProt P10253); assay: Inhibition of recombinant human α-glucosidase GAA; assay type: biochemical
[6] = target: T2, rat intestinal isomaltase; settings: read-out: Apparent IC50, Isomaltase; rat intestinal disaccharidases; cited from earlier work
[7] = target: rat intestinal maltase; settings: read-out: Apparent IC50, Maltase; rat intestinal disaccharidases; cited from earlier work
[8] = tested on: intestinal α-glucosidases; settings: cited from earlier work
[9] = read-out: Apparent IC50, Isomaltase, rat intestinal disaccharidases
[10] = read-out: Apparent IC50, Sucrase, rat intestinal disaccharidases

T2 sequence (P23739 whole entry): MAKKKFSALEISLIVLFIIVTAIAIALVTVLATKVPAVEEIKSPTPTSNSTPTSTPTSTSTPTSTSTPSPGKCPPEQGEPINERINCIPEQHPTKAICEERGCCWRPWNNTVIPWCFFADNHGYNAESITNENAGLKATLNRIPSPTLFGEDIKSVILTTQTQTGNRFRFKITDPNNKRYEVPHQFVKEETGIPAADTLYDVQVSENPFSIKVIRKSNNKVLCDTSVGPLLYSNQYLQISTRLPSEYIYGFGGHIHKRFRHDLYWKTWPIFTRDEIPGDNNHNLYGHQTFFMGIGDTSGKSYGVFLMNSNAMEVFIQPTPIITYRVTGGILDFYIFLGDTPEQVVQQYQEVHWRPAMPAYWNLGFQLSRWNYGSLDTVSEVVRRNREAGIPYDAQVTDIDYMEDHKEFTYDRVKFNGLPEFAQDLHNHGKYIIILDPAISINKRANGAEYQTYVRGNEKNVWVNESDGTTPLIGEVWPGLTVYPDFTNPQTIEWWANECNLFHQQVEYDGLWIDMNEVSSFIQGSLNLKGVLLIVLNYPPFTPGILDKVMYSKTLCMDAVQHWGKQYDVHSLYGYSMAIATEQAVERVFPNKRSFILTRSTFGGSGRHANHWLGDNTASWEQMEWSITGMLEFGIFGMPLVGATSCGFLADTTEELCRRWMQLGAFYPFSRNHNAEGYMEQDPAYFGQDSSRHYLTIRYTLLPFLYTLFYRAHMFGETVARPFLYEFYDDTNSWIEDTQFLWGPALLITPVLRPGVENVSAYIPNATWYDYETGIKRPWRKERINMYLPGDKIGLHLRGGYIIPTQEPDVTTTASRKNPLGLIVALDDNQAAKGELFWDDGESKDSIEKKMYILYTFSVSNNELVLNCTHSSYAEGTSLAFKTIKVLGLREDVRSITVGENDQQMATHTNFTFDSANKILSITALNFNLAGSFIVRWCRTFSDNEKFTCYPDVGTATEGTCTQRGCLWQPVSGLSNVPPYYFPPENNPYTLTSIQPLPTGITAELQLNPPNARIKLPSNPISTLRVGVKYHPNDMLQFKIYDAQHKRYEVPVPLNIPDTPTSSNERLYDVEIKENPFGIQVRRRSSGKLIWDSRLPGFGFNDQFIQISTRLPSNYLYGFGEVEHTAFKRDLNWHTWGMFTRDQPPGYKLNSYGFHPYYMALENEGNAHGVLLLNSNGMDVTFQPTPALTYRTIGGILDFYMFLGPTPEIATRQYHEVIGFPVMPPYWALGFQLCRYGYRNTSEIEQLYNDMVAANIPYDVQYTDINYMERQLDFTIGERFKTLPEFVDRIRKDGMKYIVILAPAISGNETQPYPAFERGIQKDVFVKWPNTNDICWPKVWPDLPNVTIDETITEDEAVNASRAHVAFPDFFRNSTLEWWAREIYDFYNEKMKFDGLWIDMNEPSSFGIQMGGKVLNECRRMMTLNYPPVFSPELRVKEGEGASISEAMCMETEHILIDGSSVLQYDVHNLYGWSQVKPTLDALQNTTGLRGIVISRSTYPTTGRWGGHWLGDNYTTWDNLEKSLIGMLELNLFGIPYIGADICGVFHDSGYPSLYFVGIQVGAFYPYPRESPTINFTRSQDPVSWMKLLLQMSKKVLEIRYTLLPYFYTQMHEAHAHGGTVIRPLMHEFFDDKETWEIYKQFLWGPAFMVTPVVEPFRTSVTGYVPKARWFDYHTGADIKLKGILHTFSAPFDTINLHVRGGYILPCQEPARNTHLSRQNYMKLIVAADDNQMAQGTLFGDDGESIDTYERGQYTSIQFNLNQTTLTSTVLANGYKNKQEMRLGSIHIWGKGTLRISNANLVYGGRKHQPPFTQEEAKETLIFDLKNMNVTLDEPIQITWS
Sequence of rat intestinal sucrase (P23739 whole entry): as above

2', 3'-epi-Neosalacinol [Compound 13]
IC50 [1]: > 1000 µM | IC50 [2]: > 100 µM | IC50 [3, 9]: 34 µM

[O-][C@@H](CO)[C@H](O)C[S@+]1C[C@@H](O)[C@H](O)[C@H]1CO [Compound 2, neosalacinol, reference compound]
IC50 [4]: 3.6 µM | IC50 [2]: 25 µM | IC50 [3]: 0.45 µM | Ki [5]: 3.6 ± 0.3 µM

O=S(=O)([O-])O[C@@H](CO)[C@H](O)C[S@+]1C[C@@H](O)[C@H](O)[C@H]1CO [Compound 1, Salacinol]
IC50 [6]: 5.2 µM | IC50 [7]: 5.2 µM | type of inhibition (Lineweaver–Burk plots) [8]: competitive type of inhibition

OCC(CO)N[C@H]1C[C@](O)(CO)[C@@H](O)[C@H](O)[C@H]1O [Voglibose]
Ki [5]: 7.6 ± 0.8 µM

2', 3'-epi-Salacinol [Compound 12]
IC50 [1]: > 1000 µM | IC50 [4, 10]: > 100 µM | IC50 [2]: > 100 µM | IC50 [3, 9]: > 100 µM

2'-epi-Neosalacinol [Compound 11]
IC50 [1]: > 1000 µM | IC50 [2]: > 100 µM | IC50 [3, 9]: > 100 µM

3'-epi-Neosalacinol [Compound 9]
IC50 [1]: > 1000 µM | IC50 [4, 10]: 0.69 µM | IC50 [2]: 4.3 µM | IC50 [3, 9]: 0.58 µM

2'-epi-Salacinol [Compound 10]
IC50 [1]: > 1000 µM | IC50 [4, 10]: > 100 µM | IC50 [2]: > 100 µM | IC50 [3, 9]: > 100 µM

3'-epi-Salacinol [Compound 8]
IC50 [1]: > 1000 µM | IC50 [4, 10]: 19 µM | IC50 [2]: > 100 µM | IC50 [3, 9]: 6.4 µM

Source: publication PMC8694024 (RSC Advances, 2021)
